Assays:
Assay type in all cases: biochemical
Conditions in all cases: 10 μM compound
His tagged ERK2 = His tagged ERK2 (Homo sapiens, UniProt P28482); assay: Extracellular signal Regulated Kinase 2 inhibition assay (ERK2), radioactive filtermat format
Description: (§1) The ERK2 kinase activity assay utilizes a radioactivity-based format in a 96-well PCR plate with radioactive readout. The ERK2 activity was assayed in a 25 μL assay mixture containing 25 mM HEPES (pH 7.0), 250 μM ATP, 1 mM MgCl2, 1 mM DTT, 2% DMSO, 150 ng/mL Myelin Basic Protein (MBP, Sigma M-1891), and 13.6 ng/mL His tagged ERK2 (specific activity=38.1 nmol/min*mg). Compounds were screened for inhibition of the ERK2 kinase activity at a concentration of 10 μM. The kinase reaction was allowed to proceed at 37° C. for 30 minutes, then reaction was stopped by the addition of 5 μl of 0.5M EDTA (pH 8). 15 μL of each solution were then spotted onto the corresponding square of a filtermat (8×12 glassfibre mat 90×120 mm, PE-Wallac 1450-421). The filtermat was allowed to dry and washed once with 10% TCA, 2% PPA, 500 mM NaCl each for 30 minutes at rt. Two further washings in 10% TCA and 2% PPA for 30 minutes were performed, then a final 30 minute wash in 99% EtOH at rt was done and the filtermat was air dried. The dry filtermat was then placed in a sample bag with a Meltilex sheet (Melt-on scintillator sheets 73×109 mm, PE-Wallac 1450-441 for filtermat A) over the filtermat. The bag was trimmed to fit into the microplate heatsealer (PE-Wallac 1495-021). The heatsealer is used to melt the Meltilex on the filtermat. The bag containing the filtermat and the melted Meltilex was then placed into a filter cassette and counted using the Microbeta Jet Scintillation and Luminescence Counter PE-Wallac 1450.

[1] = biological target: T1, PKA (catalytic subunit, bovine heart) (Bos taurus, UniProt P00517); assay: Protein Kinase A inhibition assay (PKA)
T1 construct: PKA (catalytic subunit, bovine heart, Calbiochem 539486); purchased Calbiochem 539486; host or cells: bovine heart (tissue-derived)
Description: as §1
The PKA kinase activity assay utilizes a radioactivity-based format in a 96-well PCR plate with radioactive readout. The PKA activity was assayed in a 25 μL assay mixture containing 25 mM HEPES (pH 7.0), 250 μM ATP, 10 mM MgCl2, 1 mM DTT, 1 mM EDTA (pH 8). 2% DMSO. 250 ng/mL Histone H2B (Roche 223 514), and 2 ng/mL PKA (catalytic subunit, bovine heart, Calbiochem 539486, specific activity=1170 pmol/min*μg). Compounds were screened for inhibition of the PKA kinase activity at a concentration of 10 μM. The kinase reaction was allowed to proceed at 37° C. for 30 minutes, then the reaction was stopped by addition of 5 μL of 0.5M EDTA (pH 8). The remainder of the protocol is identical to the one reported for ERK2.

PKC (rat brain) = assay: Protein Kinase C inhibition assay (PKC)
Description: as §1
The PKC kinase activity assay utilizes a radioactivity-based format in a 96-well PCR plate with radioactive readout. The PKC activity was assayed in a 25 μL assay mixture containing 25 mM HEPES (pH 7.0), 250 μM ATP, 10 mM MgCl2, 1 mM DTT, 1 mM EDTA (pH 8), 2 mM CaCl2, 2% DMSO, 250 ng/mL Histone H1 (Roche 1 004 875), and 165 ng/mL PKC (rat brain, Calbiochem 539494, specific activity=1600 nmol/min*mg). Compounds were screened for inhibition of the PKC kinase activity at a concentration of 10 μM. The kinase reaction was allowed to proceed at 37° C. for 30 minutes, then the reaction was stopped by addition of 5 μL of 0.5M EDTA (pH 8). The remainder of the protocol is identical to the one reported for ERK2.

GSK3β = biological target: T2, GSK3β (Homo sapiens, UniProt P49841); assay: Glycogen Synthase Kinase 3β inhibition assay (GSK3β)
T2 construct: purchased Upstate Discovery
Description: The GSK3β kinase activity assay utilizes a radioactivity-based format in a 96-well PCR plate with radioactive readout. The GSK3 β activity was assayed in a 25 μL assay mixture containing 8 mM HEPES (pH 7.0), 250 μM ATP, 0.2 mM EDTA (pH 8), 2% DMSO, 250 ng/mL Myelin Basic Protein (MBP, Sigma M-1891), and 12 ng/mL GSK3β (Upstate Discovery, specific activity=607 nmol/min*GS2 peptide, concentration of 6.05 mg/mL). Compounds were screened for inhibition of the GSK3β kinase activity at a concentration of 10 μM. The kinase reaction was allowed to proceed at 37° C. for 30 minutes, then the reaction was stopped by addition of 5 μL of 0.5M EDTA (pH 8).

T2 sequence (P49841 whole entry, species assumed): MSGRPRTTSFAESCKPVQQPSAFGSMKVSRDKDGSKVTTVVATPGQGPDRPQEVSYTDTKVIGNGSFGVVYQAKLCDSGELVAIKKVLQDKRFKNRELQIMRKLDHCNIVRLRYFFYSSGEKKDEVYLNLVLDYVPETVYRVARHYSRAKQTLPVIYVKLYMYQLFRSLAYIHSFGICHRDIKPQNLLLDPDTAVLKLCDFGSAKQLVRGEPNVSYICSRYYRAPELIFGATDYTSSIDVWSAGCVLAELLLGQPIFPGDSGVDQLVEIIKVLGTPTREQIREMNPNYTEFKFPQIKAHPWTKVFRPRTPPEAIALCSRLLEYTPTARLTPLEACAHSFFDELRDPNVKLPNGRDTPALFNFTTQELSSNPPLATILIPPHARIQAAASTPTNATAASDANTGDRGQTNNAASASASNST
Sequence of His tagged ERK2 (P28482 whole entry): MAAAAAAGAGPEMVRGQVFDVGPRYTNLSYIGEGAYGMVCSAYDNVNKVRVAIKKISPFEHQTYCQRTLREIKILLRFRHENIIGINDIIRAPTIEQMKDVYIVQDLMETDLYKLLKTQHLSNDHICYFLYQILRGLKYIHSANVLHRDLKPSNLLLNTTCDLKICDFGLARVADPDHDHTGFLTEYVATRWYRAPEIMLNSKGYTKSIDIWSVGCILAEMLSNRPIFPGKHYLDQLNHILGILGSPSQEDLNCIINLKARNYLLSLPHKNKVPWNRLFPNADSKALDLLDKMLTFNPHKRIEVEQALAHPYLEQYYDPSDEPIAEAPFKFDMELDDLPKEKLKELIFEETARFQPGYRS

| SMILES | inhibition at 10 µM (His tagged ERK2) | inhibition at 10 µM [1] | % Inhibition PKC (PKC (rat brain)) | inhibition at 10 µM (GSK3β) | % Inhibition ERK2 (His tagged ERK2) | % Inhibition PKA [1] | % Inhibition GSK3β (GSK3β) |
| --- | --- | --- | --- | --- | --- | --- | --- |
| CCOC(=O)[C@]1(N)CC2CC1n1c3ccccc3c3c4c(c5c6ccccc6n2c5c31)C(=O)NC4=O (stereo partly shown) [Compound 6] | 61.3% | 59.4% | 83.97% | 94.2% | – | – | – |
| NC1(C(=O)NCCO)CC2CC1n1c3ccccc3c3c4c(c5c6ccccc6n2c5c31)C(=O)N(CCO)C4=O (stereo not shown) [Compound 37] | – | – | 53.92% | – | 35.09% | 19.81% | 80.46% |
| CN[C@H]1CC2CC1n1c3ccccc3c3c4c(c5c6ccccc6n2c5c31)C(=O)NC4=O (mixture of isomers) [Compound 2] | 65.3% | 68.4% | 90.78% | 78.2% | – | – | – |
| O=C1NC(=O)c2c1c1c3ccccc3n3c1c1c2c2ccccc2n1C1CC3CC1N1CCCCC1 (stereo not shown) [Compound 29] | – | – | 46.63% | – | 56.44% | 18.38% | 54.14% |
| CCOC(=O)[C@]1(N)CC2CC1n1c3ccccc3c3c4c(c5c6ccccc6n2c5c31)C(=O)N(Cc1ccc(OC)cc1)C4=O (stereo partly shown) [Compound 35] | 63.8% | < 10% | 28.47% | < 10% | – | – | – |
| N#C[C@]1(N)CC2CC1n1c3ccccc3c3c4c(c5c6ccccc6n2c5c31)C(=O)NC4=O (mixture of isomers) [Compound 4] | 94.1% | 89.6% | 78.10% | 98.5% | – | – | – |
| COc1ccc(CN2C(=O)c3c(c4c5ccccc5n5c4c4c3c3ccccc3n4C3CC5[C@](N)(C#N)C3)C2=O)cc1 (stereo partly shown) [Compound 28] | 48.7% | < 10% | 28.19% | 25.6% | – | – | – |
| NC(=O)[C@]1(N)C[C@@H]2CC1n1c3ccc(O)cc3c3c4c(c5c6cc(O)ccc6n2c5c31)C(=O)NC4=O (mixture of isomers) [Compound 12] | 98.1% | 99.9% | 96.63% | 100% | – | – | – |
| COc1ccc(CN2C(=O)c3c(c4c5ccccc5n5c4c4c3c3ccccc3n4C3CC(NCCO)C5C3)C2=O)cc1 (stereo not shown) [Compound 25] | – | – | 15.94% | – | 33.51% | NA (NA = <10% inhibition) | NA (NA = <10% inhibition) |
| O=C1NC(=O)c2c1c1c3ccccc3n3c1c1c2c2ccccc2n1C1CC3CC1NCc1ccccc1 (stereo not shown) [Compound 23] | – | – | 70.41% | – | 53.66% | 27.53% | 72.56% |
| N[C@@]1(C(=O)NCCO)CC2CC1n1c3ccccc3c3c4c(c5c6ccccc6n2c5c31)C(=O)NC4=O (mixture of isomers) [Compound 11] | 93.6% | 90.5% | 95.94% | 99.2% | – | – | – |
| CNC(=O)[C@]1(N)CC2CC1n1c3ccccc3c3c4c(c5c6ccccc6n2c5c31)C(=O)NC4=O (mixture of isomers) [Compound 10] | 93.5% | 95.3% | 90.75% | 99.2% | – | – | – |
| COc1ccc(CN2C(=O)c3c(c4c5ccccc5n5c4c4c3c3ccccc3n4C3CC5[C@]4(C3)NC(=O)NC4=O)C2=O)cc1 (mixture of isomers) [Compound 13] | 24.7% | 13.2% | 13.67% | < 10% | – | – | – |
| COc1ccc(CN2C(=O)c3c(c4c5ccccc5n5c4c4c3c3ccccc3n4C3CC5C(N)(C(=O)O)C3)C2=O)cc1 (stereo not shown) [Compound 36] | – | – | 65.10% | – | 73.44% | 21.80% | 82.71% |
| O=C(O)c1cn([C@@H]2C3CC([C@H]2O)n2c4ccccc4c4c5c(c6c7ccccc7n3c6c42)C(=O)NC5=O)nn1 (mixture of isomers) [Compound 18] | < 10% | 11.5% | 21.55% | 75.9% | – | – | – |
| N[C@@H]1C2CC([C@H]1O)n1c3ccccc3c3c4c(c5c6ccccc6n2c5c31)C(=O)NC4=O (mixture of isomers) [Compound 16] | 98.2% | 84.8% | 93.34% | 98.5% | – | – | – |
| COc1ccc(CN2C(=O)c3c(c4c5ccccc5n5c4c4c3c3ccccc3n4C3CC5[C@@H](N)C3)C2=O)cc1 (mixture of isomers) [Compound 1] | 30.9% | 17.6% | 49.73% | < 10% | – | – | – |
| COC(=O)[C@]1(N)CC2CC1n1c3ccccc3c3c4c(c5c6ccccc6n2c5c31)C(=O)NC4=O (stereo partly shown) [Compound 8] | 50.2% | 70.8% | 59.42% | 96.9% | – | – | – |
| CCCCNC1CC2CC1n1c3ccccc3c3c4c(c5c6ccccc6n2c5c31)C(=O)N(Cc1ccc(OC)cc1)C4=O (stereo not shown) [Compound 30] | – | – | 29.04% | – | 44.61% | NA (NA = <10% inhibition) | NA (NA = <10% inhibition) |
| N[C@@]1(C(=O)O)CC2CC1n1c3ccccc3c3c4c(c5c6ccccc6n2c5c31)C(=O)NC4=O (stereo partly shown) [Compound 7] | 94.7% | 62.5% | 85.71% | 99% | – | – | – |
| O=C1NC(=O)c2c1c1c3ccccc3n3c1c1c2c2ccccc2n1C1CC3C[C@@H]1N1CCOCC1 (mixture of isomers) [Compound 3] | 39.9% | 26.1% | 75.80% | 19.3% | – | – | – |
| COc1ccc(CN2C(=O)c3c(c4c5ccccc5n5c4c4c3c3ccccc3n4C3CC(N(C)C)C5C3)C2=O)cc1 (stereo not shown) [Compound 31] | – | – | 21.91% | – | 42.42% | NA (NA = <10% inhibition) | NA (NA = <10% inhibition) |
| COc1ccc(CN2C(=O)c3c(c4c5ccccc5n5c4c4c3c3ccccc3n4C3CC5[C@]4(C3)NC(=O)N(C)C4=O)C2=O)cc1 (mixture of isomers) [Compound 14] | 46.6% | 16.6% | 34.01% | < 10% | – | – | – |
| N#CC1(NC(=O)C(F)(F)F)CC2CC1n1c3ccccc3c3c4c(c5c6ccccc6n2c5c31)C(=O)NC4=O (stereo not shown) [Compound 32] | – | – | 49.33% | – | 44.03% | 23.81% | 72.20% |
| CCNC(=O)C1(N)CC2CC1n1c3ccccc3c3c4c(c5c6ccccc6n2c5c31)C(=O)NC4=O (stereo not shown) [Compound 41] | – | – | 83.88% | – | 72.93% | 86.43% | 95.80% |

— patent publication US20070149481A1, “N,n-bridged, nitrogen-substituted carbacyclic indolocarbazoles as protein kinase inhibitors” (priority 2002, published 2007)
